Assay results from US8476449B2, “Radioactive iodine labeled organic compound or salt thereof” (Nihon Medi-Physics Co., Ltd., priority 2010, dated 2013).
Where two headings read alike, the source gives them in different places.

Tests used:
Aβ42 aggregate = target: T1, Aβ42 aggregate (Homo sapiens, UniProt P05067); assay: Evaluation experiment of binding to amyloid β (filter radioactivity); conditions: Aβ42 aggregate 30 nmol/L, incubation 3 hours
T1 construct: Aβ (1-42) peptide; purchased Peptide Institute, Inc
Protocol: 0.5 mg of Aβ (1-42) peptide (purchased from Peptide Institute, Inc.) was dissolved in 2 mL of a PBS buffer containing 1 mmol/L of EDTA and incubated at 37° C. for 42 hours, thus preparing an Aβ42 aggregate. A glass tube was charged with a 10 vol % ethanol aqueous solution (900 μL), Aβ42 aggregate (50 μL, final concentration 30 nmol/L), and radioactive iodine-labeled compound 1, radioactive iodine-labeled compound 2, or radioactive iodine-labeled compound 3 (each 50 μL, 0.018-0.097 μCi), and incubation was carried out for 3 hours. B/F separation was carried out using a cell harvester (Brandel, M-24), and the radioactivity on the filter was measured in a γ counter. The proportion (%) of the radioactivity count on the filter relative to the radioactivity count of each sample used was determined, and binding of each compound to the Aβ42 aggregate was evaluated.
As a control, 4-dimethylamino-4′-iodochalcone (hereinafter, called a chalcone derivative) was prepared in accordance with a method described in the literature (Ono et al., Bioorg Med Chem, 15, 6802-6809, 2007), and the same experiment was carried out (radioactivity count in sample: […]-0.37 kBq (0.023-0.01 μCi)).

[1] = system: phosphorylated tau protein; assay: In vitro autoradiography using Alzheimer's disease patient-derived brain slice; type: binding, human; conditions: hippocampus slice of Alzheimer's disease patient, 3.07 kBq/mL, 1 hour
Protocol: A postmortem brain slice (paraffin-embedded slice) of the hippocampus of an Alzheimer's disease patient was purchased from BioChain. The brain slice was deparaffinized, a 10% ethanol-containing PBS solution (3.07 kBq/mL (0.083 μCi/mL)) of radioactive iodine-labeled compound 3 was added thereto, and a reaction was carried out for 1 hour. Subsequently, the sample was washed in sequence with a saturated lithium carbonate 50 vol % ethanol aqueous solution (2 minutes×2), a 50 volt ethanol aqueous solution (2 minutes×2), and purified water (30 seconds×2). The sample was exposed to light on an imaging plate for 48 hours, and analyzed using a bioimaging analyzer (model: BAS-5000, Fuji Photo Film Co., Ltd.). Furthermore, an adjacent slice was stained by an anti-phosphorylated tau protein antibody (AT8, Thermo).

[2] = mice
Protocol: Mice were decapitated after 2, 10, 30, and 60 minutes, and then each organ was then removed after blood collection, and radiation counts were measured in a γ counter.

tau protein aggregate = tau protein aggregate (Homo sapiens, UniProt P10636); conditions: tau 0.37 μmol/L, incubated 1 to 1.5 hours, PD-10 column
Protocol: Mixed solutions of a tau protein aggregate (final concentration 0.37 μmol/L, prepared in Example 9) or an non-aggregated tau protein (final concentration 0.37 μmol/L) and radioactive iodine-labeled compound 1 (2.0 kBq (0.055 μCi)), radioactive iodine-labeled compound 2 (20 kBq (0.55 μCi)) or radioactive iodine-labeled form 3 (2.0 kBq (0.055 μCi)) were incubated for 1 hour to 1.5 hours, and then subjected to size exclusion chromatography (PD-10 column (GE Healthcare Japan), eluent: phosphate buffered-saline (PBS)). Subsequently, the radioactivity of an eluted fraction of the tau protein aggregate or the non-aggregated tau protein was measured in a γ counter.

[3] = 2 minutes after tail vein administration
[4] = 10 minutes after tail vein administration
[5] = 30 minutes after tail vein administration
[6] = 60 minutes after tail vein administration

Chain of tau protein aggregate (P10636 1-441 isoform P10636-8): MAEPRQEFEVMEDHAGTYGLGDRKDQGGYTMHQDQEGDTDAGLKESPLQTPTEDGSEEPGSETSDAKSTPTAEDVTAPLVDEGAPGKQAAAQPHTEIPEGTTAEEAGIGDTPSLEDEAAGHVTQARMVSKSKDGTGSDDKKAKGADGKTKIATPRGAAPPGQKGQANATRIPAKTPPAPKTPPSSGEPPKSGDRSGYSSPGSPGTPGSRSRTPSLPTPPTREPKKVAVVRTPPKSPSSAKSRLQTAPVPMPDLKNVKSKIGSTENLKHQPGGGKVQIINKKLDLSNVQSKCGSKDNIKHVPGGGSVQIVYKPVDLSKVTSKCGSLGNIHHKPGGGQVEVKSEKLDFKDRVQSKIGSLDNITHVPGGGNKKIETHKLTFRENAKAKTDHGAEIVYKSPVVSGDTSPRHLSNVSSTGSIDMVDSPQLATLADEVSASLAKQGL
T1 sequence (P05067 672-713 limits assumed): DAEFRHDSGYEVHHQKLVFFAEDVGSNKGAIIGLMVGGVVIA

O=C1/C(=C/c2ccc(-c3cccc([125I])c3)o2)NC(=S)N1CCc1c[nH]cn1 [Radioactive iodine-labeled compound 3, (Z)-3-(2-(1H-Imidazol-4-yl)ethyl)-5-((5-(3-(^125I)iodophenyl)furan-2-yl)methylene)-2-thioxoimidazolidin-4-one]
Binding to the Aβ42 aggregate (proportion of radioactivity count on the filter) (Aβ42 aggregate): significantly lower
Radioactivity distribution on brain slice vs anti-phosphorylated tau antibody (AT8) staining [1]: coincided with the distribution (FIG. 10b) of the phosphorylated tau protein
Amount of radioactivity in organ: Blood [2, 3]: 8.16 ± 1.21 % ID/g
Amount of radioactivity in organ: Blood [2, 4]: 2.77 ± 0.21 % ID/g
Amount of radioactivity in organ: Blood [2, 5]: 2.11 ± 0.28 % ID/g
Amount of radioactivity in organ: Blood [2, 6]: 1.48 ± 0.27 % ID/g
Amount of radioactivity in organ: Brain [2, 3]: 1.54 ± 0.10 % ID/g
Amount of radioactivity in organ: Brain [2, 4]: 1.30 ± 0.12 % ID/g
Amount of radioactivity in organ: Brain [2, 5]: 0.66 ± 0.08 % ID/g
Amount of radioactivity in organ: Brain [2, 6]: 0.25 ± 0.02 % ID/g
Amount of radioactivity in organ: Heart [2, 3]: 8.48 ± 0.97 % ID/g
Amount of radioactivity in organ: Heart [2, 4]: 2.78 ± 0.19 % ID/g
Amount of radioactivity in organ: Heart [2, 5]: 1.73 ± 0.18 % ID/g
Amount of radioactivity in organ: Heart [2, 6]: 1.30 ± 0.37 % ID/g
Amount of radioactivity in organ: Intestine [2, 3]: 2.55 ± 0.16 % ID/g
Amount of radioactivity in organ: Intestine [2, 4]: 7.41 ± 1.21 % ID/g
Amount of radioactivity in organ: Intestine [2, 5]: 17.3 ± 1.67 % ID/g
Amount of radioactivity in organ: Intestine [2, 6]: 23.6 ± 2.39 % ID/g
Amount of radioactivity in organ: Kidney [2, 3]: 12.5 ± 0.76 % ID/g
Amount of radioactivity in organ: Kidney [2, 4]: 7.34 ± 0.70 % ID/g
Amount of radioactivity in organ: Kidney [2, 5]: 4.97 ± 0.71 % ID/g
Amount of radioactivity in organ: Kidney [2, 6]: 3.37 ± 0.30 % ID/g
Amount of radioactivity in organ: Liver [2, 3]: 35.0 ± 2.27 % ID/g
Amount of radioactivity in organ: Liver [2, 4]: 33.3 ± 1.41 % ID/g
Amount of radioactivity in organ: Liver [2, 5]: 27.2 ± 2.05 % ID/g
Amount of radioactivity in organ: Liver [2, 6]: 22.8 ± 2.13 % ID/g
Amount of radioactivity in organ: Lung [2, 3]: 11.4 ± 1.55 % ID/g
Amount of radioactivity in organ: Lung [2, 4]: 4.39 ± 0.42 % ID/g
Amount of radioactivity in organ: Lung [2, 5]: 3.00 ± 0.27 % ID/g
Amount of radioactivity in organ: Lung [2, 6]: 2.03 ± 0.14 % ID/g
Amount of radioactivity in organ: Pancreas [2, 3]: 3.30 ± 0.86 % ID/g
Amount of radioactivity in organ: Pancreas [2, 4]: 2.15 ± 0.23 % ID/g
Amount of radioactivity in organ: Pancreas [2, 5]: 1.15 ± 0.18 % ID/g
Amount of radioactivity in organ: Pancreas [2, 6]: 0.86 ± 0.08 % ID/g
Amount of radioactivity in organ: Spleen [2, 3]: 9.23 ± 0.63 % ID/g
Amount of radioactivity in organ: Spleen [2, 4]: 10.9 ± 2.78 % ID/g
Amount of radioactivity in organ: Spleen [2, 5]: 8.51 ± 2.68 % ID/g
Amount of radioactivity in organ: Spleen [2, 6]: 8.46 ± 2.57 % ID/g
Amount of radioactivity in organ: Stomach [2, 3]: 1.33 ± 0.25 % ID/g
Amount of radioactivity in organ: Stomach [2, 4]: 2.67 ± 1.59 % ID/g
Amount of radioactivity in organ: Stomach [2, 5]: 4.55 ± 1.28 % ID/g
Amount of radioactivity in organ: Stomach [2, 6]: 7.45 ± 5.07 % ID/g
Radioactivity of eluted fraction: aggregated tau vs non aggregated tau vs buffer (tau protein aggregate): specifically binding to a tau protein aggregate
